Source: patent US20240325544A1, “CATIONIC LIPID FOR COVALENT MODIFICATION OF PEPTIDES” (PharmalN Corporation, priority 2023, published 2024)
Marks after values point to notes of the source that are not given here. Bridge positions count the residues as written; N and C are the ends. Square brackets hold non-standard residues; d marks the D form. Peptide text beside a SMILES is read from it. * marks the point of attachment. Palmitoyl = CCCCCCCCCCCCCCCC(=O)*; Dab = NCC[C@H](N)C(=O)O; Dap = NC[C@H](N)C(=O)O; AEEA = NCCOCCOCC(=O)O

Tests used:
C57BL/6J mice = assay: Survival in LPS induced sepsis model (FIG. 2A); assay type: in vivo; settings: LPS 15 mg/kg IP; 0.3 mg/kg (0.1 μmol/kg) SC once, survival to 56 hours
Experimental: FIGS. 2A-2B: Single and repeat administration of cationic alkyl modified C-type Natriuretic Peptides increases probability of survival in LPS induced Sepsis and ALI animal models. FIG. 2A) Sepsis induction: Male C57BL/6J mice (n=10 per group; 3 groups) were injected IP with LPS (15 mg/kg) and treated with various test articles, including cationic alkyl modified CNPs (SEQ ID NO: 31 and 29; 0.3 mg/kg (0.1 μmol/kg) SC). The control group received LPS treatment without any test article. The test articles were administered immediately after LPS administration (marked with vertical dotted lines). Survival was monitored every 2 hours from 8-56 hours, after which the surviving mice were euthanized under isoflurane anesthesia. […] Survival was monitored every 8 hours for 72 hours, after which the surviving mice were euthanized under isoflurane anesthesia. […]
Animal care and treatment: Male C57BL/6J mice (6 weeks-old) were purchased from Kyudo (Saga, Japan) and maintained under a 12-hour light/12-hour dark cycle with free access to water and standard mouse diet (MF diet, Oriental Yeast Co., Ltd. Tokyo, Japan). […] Survival was monitored every 2 hours from 8-56 hours, after which the mice were euthanized under isoflurane anesthesia. […] Survival was monitored every 8 hours for 72 hours, after which the mice were euthanized under isoflurane anesthesia. […]

[1] = test system: inflammatory cytokines (MCP1, IL-6, TNFα) in BALF; assay: LPS ALI model: inflammatory cytokines in BALF by ELISA (Table 4); assay type: in vivo, mice; settings: LPS 0.05 mg/kg IT; SEQ 0.3 mg/kg SC, Sivelestat 150 mg/kg IP; 24 hours
Experimental: Animal care and treatment: Male C57BL/6J mice (6 weeks-old) were purchased from Kyudo (Saga, Japan) and maintained under a 12-hour light/12-hour dark cycle with free access to water and standard mouse diet (MF diet, Oriental Yeast Co., Ltd. Tokyo, Japan). Drug administration: Mice were administered LPS (0.05 mg/kg IT; Sigma-Aldrich) followed by treatment with various test articles, including Sivelestat (150 mg/kg; Nipro, Osaka, Japan), an inhibitor of human neutrophil elastase, injected IP as a positive control, and cationic alkyl modified CNPs (SEQ ID NO: 31, 29, and 30; 0.3 mg/kg (0.1 μmol/kg) SC). The test articles were administered immediately after LPS injection. Additionally, a normal control (NC) group without LPS administration and a Control group receiving only LPS without any test article were included. After 24 hours, the mice were euthanized under isoflurane anesthesia and BALF was harvested. Biochemical analysis: ALI and ARDS are often characterized by increased levels of inflammatory cytokines, including Macrophage Chemoattractant Protein-1 (MCP1), Interleukin-6 (IL-6), and […] (TNFα), in BALF. Decreases in their concentration can indicate the resolution of ALI/ARDS. Concentration of each cytokine (MCP1, IL-6, and TNFα) was measured using an ELISA kit (R&D SYSTEMS, Minneapolis M N). […] Statistical analysis was based on Dunnett's test performed by using GraphPad. (n=5, 8, 8, 8, and 8; NC, Control, PC, SEQ ID NO: 31, SEQ ID NO: 29). *** P<0.001, ** P<0.01, * P<0.05 vs each corresponding Control group.

Sprague Dawley rats = settings: rat, in vivo, sc
Experimental: Animal care and treatment: Male Sprague Dawley rats aged 8 to 10 weeks (Charles River, Hollister, CA) were housed in groups of two (n=3/group) in disposable polypropylene cages with rodent cob bedding at the PharmaIN animal facility. Animals had ad libitum access to food (LabDiet Pico Rodent #5053; Animal Specialties, Woodburn, OR) and water. Temperature (68-74° F.) and humidity (30-60%) were maintained within a controlled range, and a 12-hour light/dark cycle was used. […] Animals were monitored closely during the first 4 hours following injection, then hourly throughout the rest of the day for any signs of swelling or discoloration (dilatory side effect), lethargy (side effect), ataxia (ataxia is used as a marker of toxicity). Rats were allowed a 1-week wash-out period between bolus doses. Following final observations, animals were humanely euthanized through CO2 asphyxiation.

## CCCCCCCCCCCCCCCC(=O)NCCOCCOCC(=O)NCCOCCOCC(=O)NCCOCCOCC(=O)N[C@@H](CN)C(=O)N[C@@H](CN)C(=O)NCC(=O)N[C@@H](CC(C)C)C(=O)N[C@@H](CO)C(=O)N[C@@H](CCCCN)C(=O)NCC(=O)N[C@H]1CSSC[C@@H](C(=O)O)NC(=O)CNC(=O)[C@H](CC(C)C)NC(=O)CNC(=O)[C@H](CO)NC(=O)[C@H](CCC(N)=O)NC(=O)[C@H](CO)NC(=O)CNC(=O)[C@H]([C@@H](C)CC)NC(=O)[C@H](CCCNC(=N)N)NC(=O)[C@H](CC(=O)O)NC(=O)[C@H](CC(C)C)NC(=O)[C@H](CCCCN)NC(=O)[C@H](CC(C)C)NC(=O)CNC(=O)[C@H](Cc2ccccc2)NC1=O [SEQ ID NO: 31] ({Palmitoyl-AEEA-AEEA-AEEA}-[Dap][Dap]GLSKGCFGLKLDRIGSQSGLGC-OH; disulfide 8-24; C-terminus assumed)
C57BL/6J mice
  Survival: effective in improving survival
[1]
  IL-6 in BALF: 56* % Of Control
  MCP1 in BALF: 50** % Of Control
  TNFα in BALF: 28** % Of Control
Sprague Dawley rats
  Swelling and/or Discoloration in n = 3: (3.3) μmol/kg

## CCCCCCCCCCCCCCCC(=O)NCCOCCOCC(=O)NCCOCCOCC(=O)NCCOCCOCC(=O)N[C@@H](CCN)C(=O)N[C@@H](CCN)C(=O)NCC(=O)N[C@@H](CC(C)C)C(=O)N[C@@H](CO)C(=O)N[C@@H](CCCCN)C(=O)NCC(=O)N[C@H]1CSSC[C@@H](C(=O)O)NC(=O)CNC(=O)[C@H](CC(C)C)NC(=O)CNC(=O)[C@H](CO)NC(=O)[C@H](CCC(N)=O)NC(=O)[C@H](CO)NC(=O)CNC(=O)[C@H]([C@@H](C)CC)NC(=O)[C@H](CCCNC(=N)N)NC(=O)[C@H](CC(=O)O)NC(=O)[C@H](CC(C)C)NC(=O)[C@H](CCCCN)NC(=O)[C@H](CC(C)C)NC(=O)CNC(=O)[C@H](Cc2ccccc2)NC1=O [SEQ ID NO: 29] ({Palmitoyl-AEEA-AEEA-AEEA}-[Dab][Dab]GLSKGCFGLKLDRIGSQSGLGC-OH; disulfide 8-24; C-terminus assumed)
C57BL/6J mice
  Survival: effective in improving survival
[1]
  IL-6 in BALF: 76 % Of Control
  MCP1 in BALF: 69 % Of Control
  TNFα in BALF: 39** % Of Control
Sprague Dawley rats
  Swelling and/or Discoloration in n = 3: (3.1) μmol/kg
